Data published in US7160898B2, “Pharmacological treatment for sleep apnea” (Board of Trustees of The University of Illinois, priority 2002, dated 2007).

What was measured:
[1] = tested on: rat model of spontaneous sleep apnea; assay: Spontaneous sleep apnea in freely moving rats after GR38032F (Example 2); type: in vivo, rat (Sprague-Dawley); conditions: 1 mg/kg i.p.
Method: Adult, male Sprague-Dawley rats (Sasco-King, Wilmington, Mass.; usually 8 per test group; 300 g) were maintained on a 12-hour light (08:00–20:00 hour)/12-hour dark (20:00–08:00 hour) cycle for one week, housed in individual cages and given ad libitum access to food and water. Following the one week of acclimatization, animals were subjected to the following surgical procedures.
Acclimatized animals were anesthetized for the implantation of cortical electrodes for electroencephalogram (EEG) recording and neck muscle electrodes for electromyogram (EMG) recording using a mixture of ketamine (Vedco, Inc., St. Joseph, Mo.; 100 mg/ml) and acetylpromazine (Vedco, Inc., St. Joseph, Mo.; 10 mg/ml; 4:1, volume/volume) at a volume of 1 ml/kg body weight. The surface of the skull was exposed surgically and cleaned with a 20% solution of hydrogen peroxide followed by a solution of 95% isopropyl alcohol. Next, a dental preparation of sodium fluoride (Flura-GEL®, Saslow Dental, Mt. Prospect, Ill.) was applied to harden the skull above the parietal cortex and allowed to remain in place for 5 minutes. The fluoride mixture was then removed from the skull above the parietal cortex. The EEG electrodes consisting of four stainless steel machine screws, having leads attached thereto, were threaded into the skull to rest on the dura over the parietal cortex. A thin layer of Justi® resin cement (Saslow Dental, Mt. Prospect, Ill.) was applied to cover the screw heads (of screws implanted in the skull) and surrounding skull to further promote the adhesion of the implant. EMG electrodes consisting of two ball-shaped wires were inserted into the bilateral neck musculature. All leads (i.e., EEG and EMG leads) were soldered to a miniature connector (39F1401, Newark Electronics, Schaumburg, Ill.). Lastly, the entire assembly was fixed to the skull with dental cement.
After surgery, all animals were allowed to recover for one week before being subjected to another surgery that involved implantation of a radiotelemetry transmitter (TA11-PXT, Data Sciences International, St. Paul, Minn.) for monitoring blood pressure (BP) and heart period (HP), estimated as pulse interval. After the animals were anesthetized (as described above), the hair from the subxiphoid space to the pelvis was removed. The entire area was scrubbed with iodine and rinsed with alcohol and saline. A 4–6 cm midline abdominal incision was made to allow good visualization of the area from the bifurcation of the aorta to the renal arteries. A retractor was used to expose the contents of the abdomen and the intestine was held back using saline moistened gauze sponges. The aorta was dissected from the surrounding fat and connective tissues using sterile cotton applicators. A 3-0 silk suture was placed beneath the aorta and traction was applied to the suture to restrict the blood flow. Then the implant (TA11-PXT) was held by forceps while the aorta was punctured just cranial to the bifurcation using a 21-gauge needle bent at the beveled end. The tip of the catheter was inserted under the needle using the needle as a guide until the thin-walled BP sensor section was within the vessel. […]
Physiological parameters (see below) from each animal were recorded on 2 occasions in random order, with recordings for an individual animal separated for at least 3 days. […]

[2] = tested on: 5-hydroxytryptamine receptors; conditions: anesthetized animals; cited from earlier work

Cc1nccn1CC1CCc2c(c3ccccc3n2C)C1=O.Cl.O.O (stereo not drawn) [GR38032F, 1,2,3,9-tetrahydro-9-methyl-3-[(2-methylimidazol-1-yl)methyl]carbazole-4-one, hydrochloride, dihydrate]
time for which REM sleep apneas were completely abolished following injection [1]: at least 4 hours | rate of apneas per hour of REM sleep ([1]; 6 hour recording period, p=0.01 2-way ANOVA): significant suppressant effect | rate of apneas per hour of NREM sleep ([1]; first 2 hours of recording, paired t-tests p<0.01): significant suppression of apneas | spontaneous apneas in REM sleep ([1]; first 4 hours of recordings): no animal exhibited a single spontaneous apnea in REM sleep | rate of apneas per hour of NREM sleep ([1]; whole 6 hours of recording, two-way ANOVA vs saline control): no significant effect of treatment or time over 6 hours | antagonism of agonist-induced transient apnea [2]: significantly antagonized
